Results from patent US9493468B2, “Antifungal 5,6-dihydro-4H-pyrrolo[1,2-a][1,4]benzo-diazepines and 6H-pyrrolo[1,2-a][1,4]benzodiazepines substituted with heterocyclic derivatives” (Janssen Pharmaceutica NV, priority 2011, dated 2016).

Legend:
Type in all cases: cell-based
Microsporum canis = assay: Antifungal activity in vitro, resazurin growth inhibition: Microsporum canis (B68128)
Procedure, shortened: (§1)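 Broth microdilution: RPMI-1640/L-Gln/2% glucose, MOPS pH 7.0±0.1; 10^3 cfu/well; top concentration 64 μM, 2- or 4-fold steps. Dermatophytes at 27° C., one week or more. Resazurin 0.005% (w/v) added, fluorescence 550/590 nm.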

[1] = test system: Trichophyton mentagrophytes; assay: Antifungal activity in vitro, resazurin growth inhibition: Trichophyton mentagrophytes (B70554)
Procedure, shortened: as §1

Trichophyton rubrum = assay: Antifungal activity in vitro, resazurin growth inhibition: Trichophyton rubrum (B68183)
Procedure, shortened: as §1

Scedosporium apiospermum = assay: Antifungal activity in vitro, resazurin growth inhibition: Scedosporium apiospermum (IHEM3817)
Method: (§2) The standard susceptibility screen is performed in 96-well plates (U-bottom, Greiner Bio-One). Serial dilutions (2-fold or 4-fold) of 20 mM compound stock solutions are made in 100% DMSO, followed by an intermediate dilution step in water. These serial dilutions (10 μl) are then spotted onto test-plates that can be stored in the dark at 4° C. for a maximum period of 2 weeks. An adequate broad dose-range is included with 64 μM as the highest in-test concentration. The culture medium RPMI-1640 is supplemented with L-glutamine, 2% glucose and buffered with 3-(N-morpholino)-propanesulfonic acid (MOPS) at pH 7.0±0.1.
(§3) The different fungal species/isolates (Table 3a) are cryopreserved and 1/1000 diluted in medium just prior to use. A standard inoculum of 200 μl containing 10^3 colony-forming unit (cfu) is then added to each well. A positive control (100% growth=fungal culture without antifungal) and a negative control (0% growth ═RPMI-MOPS medium) are included on each plate. Optimal incubation time and temperature are dependent on the fungal species and vary from 24 h for yeasts (37° C.) to one week or more for dermatophytes (27° C.). Inhibition of fungal growth is measured after adding 10 μl of 0.005% (w/v) resazurin (Sigma Aldrich) to each well, based on the principle that living cells convert the non-fluorescent blue resazurin into the pink and fluorescent resorufin, allowing fluorimetric reading (λex 550 nm and λem 590 nm) after an additional incubation period (‘resa’ time mentioned in Table 3a).

Scedosporium prolificans = assay: Antifungal activity in vitro, resazurin growth inhibition: Scedosporium prolificans (IHEM21157)
Method: as §2, §3

Sporothrix schenkii = assay: Antifungal activity in vitro, resazurin growth inhibition: Sporothrix schenkii (B62482)
Procedure, shortened: as §1

Aspergillus fumigatus = assay: Antifungal activity in vitro, resazurin growth inhibition: Aspergillus fumigatus (B42928)
Procedure, shortened: as §1

Candida parapsilosis = assay: Antifungal activity in vitro, resazurin growth inhibition: Candida parapsilosis (B66126)
Procedure, shortened: as §1

Cryptococcus neoformans = assay: Antifungal activity in vitro, resazurin growth inhibition: Cryptococcus neoformans (B66663)
Procedure, shortened: as §1

Rhizopus oryzae = assay: Antifungal activity in vitro, resazurin growth inhibition: Rhizopus oryzae (IHEM5223)
Method: as §2, §3

Rhizomucor miehei = assay: Antifungal activity in vitro, resazurin growth inhibition: Rhizomucor miehei (IHEM13391)
Method: as §2, §3

Compound	Inf. B: Microsporum canis B68128, pIC50 (Microsporum canis)	Inf. G: Trichophyton mentagrophytes B70554, pIC50 [1]	Inf. C: Trichophyton rubrum B68183, pIC50 (Trichophyton rubrum)	Inf. H: Scedosporium apiospermum IHEM3817, pIC50 (Scedosporium apiospermum)	Inf. I: Scedosporium prolificans IHEM21157, pIC50 (Scedosporium prolificans)	Inf. A: Sporothrix schenkii B62482, pIC50 (Sporothrix schenkii)	Inf. E: Aspergillus fumigatus B42928, pIC50 (Aspergillus fumigatus)	Inf. D: Candida parapsilosis B66126, pIC50 (Candida parapsilosis)	Inf. F: Cryptococcus neoformans B66663, pIC50 (Cryptococcus neoformans)	Inf. J: Rhizopus oryzae IHEM5223, pIC50 (Rhizopus oryzae)	Inf. K: Rhizomucor miehei IHEM13391, pIC50 (Rhizomucor miehei)
Clc1ccc2c(c1)-n1cccc1C(c1cc3ccccc3s1)=NC2 [Compound 166]	5.70	5.52	5.70	4.33	5.65	5.52	6.00	<4.19	6.00	5.37	<4.19
Fc1ccc2oc(C3=NCc4c(Cl)cc(Cl)cc4-n4cccc43)cc2c1 [Compound 125]	5.85	5.55	5.72	5.31	6.05	4.91	5.70	<4.19	5.69	<4.19	<4.19
Clc1cccc2c1-n1cccc1C(c1ccc3ncsc3c1)=NC2 [Compound 186]	5.95	6.06	6.34	4.78	5.40	5.15	5.63	<4.19	5.69	<4.19	4.35
Clc1cccc2c1CN=C(c1cc3cccc(Cl)c3o1)c1cccn1-2 [Compound 126]	6.33	6.34	6.87	5.45	6.64	<4.19	6.29	<4.19	5.18	<4.19	<4.19
Cl.Clc1cccc2c1CNC(c1cc3ccccc3o1)c1cccn1-2 (racemic) [Compound 30]	6.27	6.15	6.29	4.94	<4.19	4.89	6.32	5.22	<4.19	<4.19	<4.19
Fc1cccc2c1CN=C(c1ccc3sccc3c1)c1cccn1-2 [Compound 175]	6.90	7.11	7.36	5.08	5.56	5.70	6.85	6.17	6.41	5.07	5.14
Clc1cccc2c1CN=C(c1cnc3c(c1)CCC3)c1cccn1-2 [Compound 105]	6.67	6.91	6.87	7.52	8.00	5.70	5.76	4.91	5.30	<4.19	4.23
